Calls of active or inactive are those of the source. The calls are words filed in the database; no cut-off is given here.
How the values were obtained:
[1] = test system: Staphylococcus warneri; test: Photodynamic inactivation of Staphylococcus warneri assessed as reduction in intracellular double stranded DNA concentration at 0.5 uM preincubated for 10 mins followed by visible light irradiation for 15 mins by fluorimetric analysis relative to control; format: functional; parameters: scale not given: the % may be the effect or the level left
[2] = test system: Escherichia coli; test: Photodynamic inactivation of Escherichia coli ATCC 25922 assessed as reduction in cell survival at 5 uM preincubated for 10 mins followed by visible light irradiation for 180 mins; format: functional
[3] = test system: Staphylococcus warneri; test: Drug uptake in Staphylococcus warneri at 0.5 uM after 10 mins by spectrofluorimetric analysis; format: ADME, organism-based; conditions: in vivo
[4] = test system: Escherichia coli; test: Photodynamic inactivation of Escherichia coli ATCC 25922 assessed as reduction in cell survival at 5 uM preincubated for 10 mins followed by visible light irradiation at 8 J cm'-2 light dose; format: functional
[5] = test system: Staphylococcus warneri; test: Photodynamic inactivation of Staphylococcus warneri assessed as reduction in cell survival at 0.5 uM preincubated for 10 mins followed by visible light irradiation for 30 mins; format: functional
[6] = test system: Escherichia coli; test: Photodynamic inactivation of Escherichia coli ATCC 25922 assessed as reduction in intracellular double stranded DNA concentration at 5 uM preincubated for 10 mins followed by visible light irradiation for 270 mins by fluorimetric analysis relative to control; format: functional; parameters: scale not given: the % may be the effect or the level left
[7] = test system: Escherichia coli; test: Photodynamic inactivation of Escherichia coli ATCC 25922 assessed as reduction in cell survival at 5 uM preincubated for 10 mins followed by visible light irradiation for 270 mins; format: functional
[8] = test system: Staphylococcus warneri; test: Photodynamic inactivation of Staphylococcus warneri assessed as reduction in cell survival at 0.5 uM preincubated for 10 mins followed by visible light irradiation for 20 mins; format: functional
[9] = test system: Staphylococcus warneri; test: Photodynamic inactivation of Staphylococcus warneri assessed as reduction in genomic DNA level at 0.5 uM preincubated for 10 mins followed by visible light irradiation for 5 to 15 mins by agarose gel electrophoresis; format: functional, organism-based
[10] = test system: Staphylococcus warneri; test: Photodynamic inactivation of Staphylococcus warneri assessed as reduction in intracellular double stranded DNA concentration at 0.5 uM preincubated for 10 mins followed by visible light irradiation for 20 mins by fluorimetric analysis relative to control; format: functional; parameters: scale not given: the % may be the effect or the level left
[11] = test system: Staphylococcus warneri; test: Photodynamic inactivation of Staphylococcus warneri assessed as reduction in cell survival at 0.5 uM preincubated for 10 mins followed by visible light irradiation for 40 mins; format: functional
[12] = test system: Escherichia coli; test: Photodynamic inactivation of Escherichia coli ATCC 25922 assessed as reduction in intracellular double stranded DNA concentration at 5 uM preincubated for 10 mins followed by visible light irradiation for 180 mins by fluorimetric analysis relative to control; format: functional; parameters: scale not given: the % may be the effect or the level left
[13] = test system: Escherichia coli; test: Drug uptake in Escherichia coli ATCC 25922 at 5 uM incubated for 10 mins followed by compound washout by spectrofluorimetric analysis relative to control; format: ADME, organism-based; conditions: in vivo
[14] = test system: Escherichia coli; test: Photodynamic inactivation of Escherichia coli ATCC 25922 assessed as reduction in intracellular double stranded DNA concentration at 5 uM preincubated for 10 mins followed by visible light irradiation by fluorimetric analysis; format: functional, organism-based; conditions: TDE = time-dependent effect
[15] = test system: Staphylococcus warneri; test: Photodynamic inactivation of Staphylococcus warneri assessed as reduction in intracellular double stranded DNA concentration at 0.5 uM preincubated for 10 mins followed by visible light irradiation for 30 mins by fluorimetric analysis relative to control; format: functional; parameters: scale not given: the % may be the effect or the level left
[16] = test system: Staphylococcus warneri; test: Photodynamic inactivation of Staphylococcus warneri assessed as reduction in intracellular double stranded DNA concentration at 0.5 uM preincubated for 10 mins followed by visible light irradiation for 40 mins by fluorimetric analysis relative to control; format: functional; parameters: scale not given: the % may be the effect or the level left
[17] = test system: Staphylococcus warneri; test: Photodynamic inactivation of Staphylococcus warneri assessed as reduction in cell survival at 0.5 uM preincubated for 10 mins followed by visible light irradiation for 5 mins; format: functional
[18] = test system: Staphylococcus warneri; test: Drug uptake in Staphylococcus warneri at 0.5 uM incubated for 10 mins followed by compound washout by spectrofluorimetric analysis relative to control; format: ADME, organism-based; conditions: in vivo
[19] = test system: Escherichia coli; test: Photodynamic inactivation of Escherichia coli ATCC 25922 assessed as reduction in cell survival at 5 uM preincubated for 10 mins followed by visible light irradiation for 60 mins; format: functional
[20] = test system: Escherichia coli; test: Photodynamic inactivation of Escherichia coli ATCC 25922 assessed as reduction in cell survival at 5 uM preincubated for 10 mins followed by visible light irradiation for 15 mins; format: functional
[21] = test system: Staphylococcus warneri; test: Photodynamic inactivation of Staphylococcus warneri assessed as reduction in cell survival at 0.5 uM preincubated for 10 mins followed by visible light irradiation for 10 mins; format: functional
[22] = test system: Escherichia coli; test: Photodynamic inactivation of Escherichia coli ATCC 25922 assessed as reduction in intracellular double stranded DNA concentration at 5 uM preincubated for 10 mins followed by visible light irradiation for 30 mins by fluorimetric analysis relative to control; format: functional; parameters: scale not given: the % may be the effect or the level left
[23] = test system: Escherichia coli; test: Drug uptake in Escherichia coli ATCC 25922 at 5 uM after 10 mins by spectrofluorimetric analysis; format: ADME, organism-based; conditions: in vivo
[24] = test system: Escherichia coli; test: Photodynamic inactivation of Escherichia coli ATCC 25922 assessed as reduction in degraded DNA and mRNA level at 5 uM preincubated for 10 mins followed by visible light irradiation for 30 mins by agarose gel electrophoresis; format: functional, organism-based
[25] = test system: Escherichia coli; test: Photodynamic inactivation of Escherichia coli ATCC 25922 assessed as reduction in cell survival at 5 uM preincubated for 10 mins followed by visible light irradiation for 30 mins; format: functional
[26] = test system: Escherichia coli; test: Photodynamic inactivation of Escherichia coli ATCC 25922 assessed as reduction in nucleic acid level at 5 uM preincubated for 10 mins followed by visible light irradiation for 60 mins by agarose gel electrophoresis; format: functional, organism-based
[27] = test system: Escherichia coli; test: Photodynamic inactivation of Escherichia coli ATCC 25922 assessed as reduction in cell survival at 5 uM preincubated for 10 mins followed by visible light irradiation for 90 mins; format: functional
[28] = test system: Escherichia coli; test: Photodynamic inactivation of Escherichia coli ATCC 25922 assessed as reduction in intracellular double stranded DNA concentration at 5 uM preincubated for 10 mins followed by visible light irradiation for 15 mins by fluorimetric analysis relative to control; format: functional; parameters: scale not given: the % may be the effect or the level left
[29] = test system: Staphylococcus warneri; test: Photodynamic inactivation of Staphylococcus warneri assessed as reduction in intracellular double stranded DNA concentration at 0.5 uM preincubated for 10 mins followed by visible light irradiation for 10 mins by fluorimetric analysis relative to control; format: functional; parameters: scale not given: the % may be the effect or the level left
[30] = test system: Staphylococcus warneri; test: Photodynamic inactivation of Staphylococcus warneri assessed as reduction in intracellular double stranded DNA concentration at 0.5 uM preincubated for 10 mins followed by visible light irradiation by fluorimetric analysis; format: functional, organism-based; conditions: TDE = time-dependent effect
[31] = test system: Staphylococcus warneri; test: Photodynamic inactivation of Staphylococcus warneri assessed as reduction in intracellular double stranded DNA concentration at 0.5 uM preincubated for 10 mins followed by visible light irradiation for 5 mins by fluorimetric analysis relative to control; format: functional; parameters: scale not given: the % may be the effect or the level left
[32] = test system: Escherichia coli; test: Photodynamic inactivation of Escherichia coli ATCC 25922 assessed as reduction in rRNA level at 5 uM preincubated for 10 mins followed by visible light irradiation for 15 mins by agarose gel electrophoresis; format: functional, organism-based
[33] = test system: Escherichia coli; test: Photodynamic inactivation of Escherichia coli ATCC 25922 assessed as reduction in genomic DNA level at 5 uM preincubated for 10 mins followed by visible light irradiation for 15 mins by agarose gel electrophoresis; format: functional, organism-based
[34] = test system: Escherichia coli; test: Photodynamic inactivation of Escherichia coli ATCC 25922 assessed as reduction in intracellular double stranded DNA concentration at 5 uM preincubated for 10 mins followed by visible light irradiation for 90 mins by fluorimetric analysis relative to control; format: functional; parameters: scale not given: the % may be the effect or the level left
[35] = test system: Staphylococcus warneri; test: Photodynamic inactivation of Staphylococcus warneri assessed as reduction in nucleic acid level at 0.5 uM preincubated for 10 mins followed by visible light irradiation for 20 to 40 mins by agarose gel electrophoresis; format: functional, organism-based
[36] = test system: Staphylococcus warneri; test: Photodynamic inactivation of Staphylococcus warneri assessed as reduction in cell survival at 0.5 uM preincubated for 10 mins followed by visible light irradiation for 15 mins; format: functional
[37] = test system: Staphylococcus warneri; test: Photodynamic inactivation of Staphylococcus warneri assessed as reduction in cell survival at 0.5 uM preincubated for 10 mins followed by visible light irradiation at 5 J cm'-2 light dose; format: functional
[38] = test system: Escherichia coli; test: Photodynamic inactivation of Escherichia coli ATCC 25922 assessed as reduction in intracellular double stranded DNA concentration at 5 uM preincubated for 10 mins followed by visible light irradiation for 60 mins by fluorimetric analysis relative to control; format: functional; parameters: scale not given: the % may be the effect or the level left
[39] = test system: Staphylococcus warneri; test: Photodynamic inactivation of Staphylococcus warneri assessed as reduction in DNA level at 0.5 uM preincubated for 10 mins followed by visible light irradiation for 40 mins by agarose gel electrophoresis; format: functional, organism-based
[40] = test system: Escherichia coli; test: Photodynamic inactivation of Escherichia coli ATCC 25922 assessed as reduction in 16S rRNA level at 5 uM preincubated for 10 mins followed by visible light irradiation for 30 mins by agarose gel electrophoresis; format: functional, organism-based
[41] = test system: Escherichia coli; test: Photodynamic inactivation of Escherichia coli ATCC 25922 assessed as reduction in 23S rRNA level at 5 uM preincubated for 10 mins followed by visible light irradiation for 30 mins by agarose gel electrophoresis; format: functional, organism-based
[42] = test system: Staphylococcus warneri; test: Photodynamic inactivation of Staphylococcus warneri assessed as reduction in DNA level at 0.5 uM preincubated for 10 mins followed by visible light irradiation for 5 to 30 mins by agarose gel electrophoresis; format: functional, organism-based

SMILES | Activity [1] [%] | log10CFU/ml [2] | Drug uptake [3] | Activity [4] [%] | log10CFU/ml [5] | Activity [6] [%] | log10CFU/ml [7] | log10CFU/ml [8] | Activity [10] [%] | log10CFU/ml [11] | Activity [12] [%] | Drug uptake [13] [%] | Activity [14] | Activity [15] [%] | Activity [16] [%] | log10CFU/ml [17] | Drug uptake [18] [%] | log10CFU/ml [19] | log10CFU/ml [20] | log10CFU/ml [21] | other results
C[n+]1ccc(-c2c3nc(c(-c4cc[n+](C)cc4)c4ccc([nH]4)c(-c4c(F)c(F)c(F)c(F)c4F)c4nc(c(-c5cc[n+](C)cc5)c5ccc2[nH]5)C=C4)C=C3)cc1.[I-].[I-].[I-] | 78 | 7.2 | Active | 99.9 | 7.2 | 99.6 | 7.7 | 6.9 | 82.8 | 7.5 | 99.1 | 47 | tde | 91.9 | 92.2 | 4.8 | 74 | 5.4 | 3.1 | 5.3 | Activity [9]: Active; Activity [22]: 55.1%; Drug uptake [23]: Active; Activity [24]: Active; log10CFU/ml [25]: 5.2; Activity [26]: Active; log10CFU/ml [27]: 5.8; Activity [28]: 23.1%; Activity [29]: 69.9%; Activity [30]: tde; Activity [31]: 66.2%; Activity [32]: Active; Activity [33]: Active; Activity [34]: 98.3%; Activity [35]: Active; log10CFU/ml [36]: 5.6; Activity [37]: 99.9%; Activity [38]: 98.4%
C[n+]1ccc(-c2c3nc(c(-c4cc[n+](C)cc4)c4ccc([nH]4)c(-c4cc[n+](C)cc4)c4nc(c(-c5cc[n+](C)cc5)c5ccc2[nH]5)C=C4)C=C3)cc1.[I-].[I-].[I-].[I-] | 38.1 | 6.1 | Active | 99.9 | 4.7 | 99.8 | 6.2 | 3.3 | 38.3 | 5.6 | 99.8 | 35 | – | 45.3 | 58.2 | 0.4 | 47 | 4.4 | 0.2 | 1.8 | Activity [22]: 42.8%; Drug uptake [23]: Active; log10CFU/ml [25]: 2.9; log10CFU/ml [27]: 5.7; Activity [28]: 14.3%; Activity [29]: 37.9%; Activity [31]: 19.6%; Activity [34]: 99.8%; log10CFU/ml [36]: 2.8; Activity [37]: 99.9%; Activity [38]: 81.2%
C[n+]1ccc(-c2c3nc(c(-c4cc[n+](C)cc4)c4ccc([nH]4)c(-c4cc[n+](C)cc4)c4ccc([nH]4)c(-c4cc[n+](C)cc4)c4nc2C=C4)C=C3)cc1 | – | – | – | – | – | – | – | – | – | – | – | – | tde | – | – | – | – | – | – | – | Activity [39]: inactive; Activity [26]: Active; Activity [40]: Active; Activity [32]: inactive; Activity [41]: Active; Activity [33]: inactive; Activity [42]: Active

— ChEMBL document CHEMBL2401671, “Nucleic acid changes during photodynamic inactivation of bacteria by cationic porphyrins” (Bioorg Med Chem, 2013)
